Entries after “also recorded” stand apart in the source; their conditions may differ.
Key:
PTPRZ-ICR [1] = molecular target: T1, PTPRZ-ICR (Homo sapiens, UniProt P23471, DEL1723-1729); test: Isothermal titration calorimetry
Method: Titration isotherm (with error bars). The isotherm was fit to a one-to-one binding model (solid line) using the program SEDPHAT (ref. [48]) with a 1:1 binding model (B). The single dissociation constant and enthalpy change are indicated in the inset. Residuals calculated by subtracting fit values from observed values (C).
The titration sequence included a single 0.4 μl injection followed by 19 injections of 2 μl each at an interval of 120 s between the injections.

PTPRZ = PTPRZ (Homo sapiens, UniProt P23471, DEL1723-1729); test: PTP selectivity assay with DiFMUP substrate
Method: (§1) Human PTPRZ-ICR (0.1 nM) was added to the substrate solution (closed arrowheads), and was followed by the addition of test compounds at the indicated concentrations (open arrowheads). The slope of the fluorescence signal during the 40 s before and after the addition of a compound was measured, and the inhibitory effects of each compound were determined by the ratio of the two. […] The inhibition assay was performed with 20 μM DiFMUP, a non-specific PTP substrate.
(§2) min with 1 M Tris HCl, pH 9.2 (20 µl). The final concentrations of compounds, the
(§3) pCAP substrate, and DMSO were 10 µg/ml, 20 µM, and 1% (v/v), respectively.
(§4) Fluorescence was measured at excitation/emission wavelengths of 380/460 nm
(§5) using an EnVision Multilabel Reader (PerkinElmer). A decrease of more than
(§6) 40% in the signal intensity against the DMSO control was considered to be a
(§7) potential hit, and reproducibility was examined with a freshly prepared stock.
(§8) three-component buffer at pH 7.0 using a 384-well plate. The reaction was […]
(§9) calculated by nonlinear regression (JMP software, SAS Institute). […]
(§10) type was analyzed by a Lineweaver-Burk plot according to Michaelis-Menten […]
(§11) was continuously monitored for ~100 s as an increase in fluorescence at 455 nm […]
(§12) measured the slope of the linear increase of the fluorescence signal as an indicator
(§13) of catalytic activity. IC50 values were determined as above.

human PTPRM = human PTPRM (Homo sapiens, UniProt P28827); test: PTP selectivity assay with DiFMUP substrate
Method: as §1, §2, §3, §4, §5, §6, §7, §8, §9, §10, §11, §12, §13

[2] = Parallel artificial membrane permeability assay (PAMPA); format: in vitro ADME
C6 cells = test: Stability of SCB4380 in C6 cells, time-lapse microscopy after microinjection; format: cell-based, rat
[3] = as above; format: cell-based, rat; settings: rat; after direct microinjection, time-lapse microscopy; read-out: Average half-life for disappearance of the fluorescent signal in C6 cells
mouse PTPRB = mouse PTPRB (Mus musculus, UniProt B2RU80); test: PTP selectivity assay with DiFMUP substrate
mouse PTPRB, sequence (B2RU80 1644-1997 limits assumed): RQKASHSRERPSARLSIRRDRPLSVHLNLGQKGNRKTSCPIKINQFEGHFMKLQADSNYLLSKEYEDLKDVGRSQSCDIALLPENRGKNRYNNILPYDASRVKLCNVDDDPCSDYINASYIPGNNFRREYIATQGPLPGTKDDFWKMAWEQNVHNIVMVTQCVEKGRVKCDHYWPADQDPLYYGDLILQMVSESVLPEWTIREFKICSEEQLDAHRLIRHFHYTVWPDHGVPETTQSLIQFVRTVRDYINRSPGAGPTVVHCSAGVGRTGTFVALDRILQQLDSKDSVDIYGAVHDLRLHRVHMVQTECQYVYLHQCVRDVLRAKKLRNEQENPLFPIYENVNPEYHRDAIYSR
Method: as §1, §3, §4
(§14) using an EnVision Multilabel Reader (PerkinElmer).
(§15) calculated by nonlinear regression (JMP software, SAS Institute).
(§16) type was analyzed by a Lineweaver-Burk plot according to Michaelis-Menten
(§17) BSA, 5 mM DTT and 0.01% Brij-35) with DiFMUP
(§18) (6,8-difluoro-4-methylumbiliferyl phosphate, Molecular probe) as a nonspecific PTP
(§19) substrate. One hundred microliters of 40 µM DiFMUP were preincubated in a
cuvette at room temperature.
(§20) In each experiment, the hydrolysis of DiFMUP
(§21) was continuously monitored for ~100 s as an increase in fluorescence at 455 nm
(§22) (excitation at 358 nm) using a spectrofluorometer (FI-4500, Hitachi). We
as §12, §13

PTPRZ-ICR [4] = molecular target: T1, PTPRZ-ICR; test: Hydrolysis of pCAP-GIT1_549–556 by human PTPRZ-ICR, IC50 and kinetic analysis
Method: as §1, §2, §3, §4, §5, §6, §7, §8, §9, §10, §11, §12, §13

human PTPRA = human PTPRA (Homo sapiens, UniProt P18433); test: PTP selectivity assay with DiFMUP substrate
Method: as §1, §2, §3, §4, §5, §6, §7, §8, §9, §10, §11, §12, §13

PTPRZ-ICR [5] = molecular target: T1, PTPRZ-ICR; test: Mass spectrometry under non-denaturing conditions (native MS) binding
Method: PTPRZ-ICR was mixed with the indicated compounds, and their binding to PTPRZ-ICR was monitored by MS under non-denaturing conditions. […] The concentrations of PTPRZ-ICR proteins used for the assay were estimated to be approximately 0.2 to 0.3 μM by SDS-PAGE followed by CBB staining.
Ten microliter aliquots were mixed with equal volumes of each compound solution, and the samples were immediately analyzed by nanoflow electrospray using in-house made gold-coated glass capillaries (~2 μl sample was loaded for each analysis). […] Spectra were calibrated using 1 mg/ml cesium iodide, and analyzed by Mass Lynx software (Waters).

human PTPRS = molecular target: T2, human PTPRS (Homo sapiens, UniProt Q13332); test: PTP selectivity assay with DiFMUP substrate
T2 sequence (Q13332 1304-1948): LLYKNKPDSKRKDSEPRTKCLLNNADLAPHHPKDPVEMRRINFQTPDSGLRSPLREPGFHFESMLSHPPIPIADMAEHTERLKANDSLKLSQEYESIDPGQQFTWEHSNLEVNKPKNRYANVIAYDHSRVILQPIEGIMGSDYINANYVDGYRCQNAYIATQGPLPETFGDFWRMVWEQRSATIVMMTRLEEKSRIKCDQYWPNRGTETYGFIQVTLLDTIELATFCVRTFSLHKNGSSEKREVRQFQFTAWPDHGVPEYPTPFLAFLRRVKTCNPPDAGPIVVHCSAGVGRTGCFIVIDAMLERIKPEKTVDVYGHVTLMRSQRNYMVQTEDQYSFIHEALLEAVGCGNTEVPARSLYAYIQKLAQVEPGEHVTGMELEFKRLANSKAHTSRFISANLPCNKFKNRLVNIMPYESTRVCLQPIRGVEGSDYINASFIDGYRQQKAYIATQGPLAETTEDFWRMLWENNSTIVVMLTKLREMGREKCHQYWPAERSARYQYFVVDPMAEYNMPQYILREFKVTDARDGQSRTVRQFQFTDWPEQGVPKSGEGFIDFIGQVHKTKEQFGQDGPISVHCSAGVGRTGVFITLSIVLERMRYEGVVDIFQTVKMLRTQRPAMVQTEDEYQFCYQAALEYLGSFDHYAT
Method: as §1, §3, §4, §14, §15, §16, §17, §18, §19
cuvette at room temperature.
as §20, §21, §22, §12, §13

human PTPN6 = molecular target: T3, human PTPN6 (Homo sapiens, UniProt P29350); test: PTP selectivity assay with DiFMUP substrate
T3 sequence (P29350 220-523): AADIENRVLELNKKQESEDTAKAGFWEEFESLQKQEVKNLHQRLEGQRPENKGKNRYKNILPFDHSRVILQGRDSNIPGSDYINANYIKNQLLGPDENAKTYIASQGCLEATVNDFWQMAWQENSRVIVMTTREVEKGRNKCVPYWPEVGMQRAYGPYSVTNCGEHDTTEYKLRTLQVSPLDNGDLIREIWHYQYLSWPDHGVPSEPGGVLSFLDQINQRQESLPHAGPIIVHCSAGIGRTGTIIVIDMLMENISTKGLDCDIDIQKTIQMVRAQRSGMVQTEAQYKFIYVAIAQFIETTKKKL
Method: as §1, §3, §4, §14, §15, §16, §17, §18, §19
cuvette at room temperature.
as §20, §21, §22, §12, §13

PTPRZ-ICR N1758D mutant = PTPRZ-ICR N1758D mutant (Homo sapiens, UniProt P23471, DEL1723-1729/N1758D); test: Inhibitor sensitivity of site-directed mutant, pCAP assay; settings: compounds 10 μM, 20 μM pCAP-GIT1_549–556
PTPRZ-ICR N1758D mutant, sequence (P23471 1698-2308 isoform P23471-2 N1751D limits assumed): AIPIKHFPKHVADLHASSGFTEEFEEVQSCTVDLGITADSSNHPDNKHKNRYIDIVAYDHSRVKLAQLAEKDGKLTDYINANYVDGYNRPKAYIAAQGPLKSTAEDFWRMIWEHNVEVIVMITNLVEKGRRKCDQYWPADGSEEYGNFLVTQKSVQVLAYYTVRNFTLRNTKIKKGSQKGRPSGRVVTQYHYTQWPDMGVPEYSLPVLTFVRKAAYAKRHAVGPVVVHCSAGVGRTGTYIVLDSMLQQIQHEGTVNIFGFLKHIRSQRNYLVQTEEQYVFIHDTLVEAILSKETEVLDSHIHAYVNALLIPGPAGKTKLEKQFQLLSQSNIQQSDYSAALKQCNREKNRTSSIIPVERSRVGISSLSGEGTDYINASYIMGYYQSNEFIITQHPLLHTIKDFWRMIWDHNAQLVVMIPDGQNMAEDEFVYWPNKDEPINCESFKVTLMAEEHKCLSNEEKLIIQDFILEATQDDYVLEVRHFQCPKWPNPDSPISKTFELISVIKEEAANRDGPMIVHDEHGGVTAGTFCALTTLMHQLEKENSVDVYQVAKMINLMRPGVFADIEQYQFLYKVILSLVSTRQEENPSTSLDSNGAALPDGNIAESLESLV
Method: (G) Inhibitor sensitivity.
(§23) Two hundred microliters of pCAP-peptide substrates (20 μM) in a three-component buffer of pH 7.0 (100 mM acetate, 50 mM Tris, and 50 mM Bis-Tris) containing 5 mM DTT and 0.01% (v/v) Brij-35 were preincubated in a cuvette at room temperature. The reaction was initiated by adding 2 μl of an enzyme solution, and incubated for ~100 s; the amount of the enzyme was adjusted to give a convenient rate. Compounds were then added to the same cuvette at a 1/100 volume. In each experiment, the hydrolysis of the pCAP residue was continuously monitored as an increase in fluorescence at 460 nm (excitation at 334 nm) using a spectrofluorometer (FI-4500, Hitachi). We measured the slope of the linear increase of the fluorescence signal as an indicator of catalytic activity, which was obtained during the 40 s before and after the addition of a compound. The inhibitory effects of each compound were determined by the ratio of the activities, and indicated as the relative value to that of DMSO control.
(§24) respective full-length clones, and the cDNA fragments were fused in frame to the
(§25) coding sequence of glutathione S-transferase (GST) of the Escherichia coli (E. coli)
(§26) expression vector, pGEX-6P (GE Healthcare).
(§27) point mutants, pGEX-6P-PTPRZ-ICR was used as a template with a Quikchange
(§28) multisite-directed mutagenesis kit (Stratagene).

human PTPRG = human PTPRG (Homo sapiens, UniProt P23470); test: PTP selectivity assay with DiFMUP substrate
human PTPRG, sequence (P23470 790-1445): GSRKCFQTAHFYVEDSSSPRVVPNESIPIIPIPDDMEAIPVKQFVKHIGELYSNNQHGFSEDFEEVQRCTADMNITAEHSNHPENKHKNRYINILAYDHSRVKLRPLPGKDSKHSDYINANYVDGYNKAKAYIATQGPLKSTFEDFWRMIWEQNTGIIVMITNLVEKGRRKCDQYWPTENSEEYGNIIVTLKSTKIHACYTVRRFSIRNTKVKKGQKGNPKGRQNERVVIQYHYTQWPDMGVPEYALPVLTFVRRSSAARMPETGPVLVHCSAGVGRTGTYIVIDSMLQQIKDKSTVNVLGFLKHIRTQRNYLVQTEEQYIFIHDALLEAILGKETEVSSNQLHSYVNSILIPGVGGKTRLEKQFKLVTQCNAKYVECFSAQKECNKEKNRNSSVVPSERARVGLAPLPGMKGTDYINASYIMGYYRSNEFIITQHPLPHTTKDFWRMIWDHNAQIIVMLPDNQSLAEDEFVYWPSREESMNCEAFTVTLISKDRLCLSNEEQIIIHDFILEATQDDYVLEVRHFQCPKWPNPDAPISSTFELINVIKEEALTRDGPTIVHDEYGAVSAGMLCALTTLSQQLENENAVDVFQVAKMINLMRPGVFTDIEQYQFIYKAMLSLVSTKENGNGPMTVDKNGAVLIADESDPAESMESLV
Method: as §1, §2, §3, §4, §5, §6, §7, §8, §9, §10, §11, §12, §13

PTPRZ-ICR Y1756F mutant = PTPRZ-ICR Y1756F mutant (Homo sapiens, UniProt P23471, DEL1723-1729/Y1756F); test: Inhibitor sensitivity of site-directed mutant, pCAP assay; settings: compounds 10 μM or vanadate 200 μM, 20 μM pCAP-GIT1_549–556
PTPRZ-ICR Y1756F mutant, sequence (P23471 1698-2308 isoform P23471-2 Y1749F limits assumed): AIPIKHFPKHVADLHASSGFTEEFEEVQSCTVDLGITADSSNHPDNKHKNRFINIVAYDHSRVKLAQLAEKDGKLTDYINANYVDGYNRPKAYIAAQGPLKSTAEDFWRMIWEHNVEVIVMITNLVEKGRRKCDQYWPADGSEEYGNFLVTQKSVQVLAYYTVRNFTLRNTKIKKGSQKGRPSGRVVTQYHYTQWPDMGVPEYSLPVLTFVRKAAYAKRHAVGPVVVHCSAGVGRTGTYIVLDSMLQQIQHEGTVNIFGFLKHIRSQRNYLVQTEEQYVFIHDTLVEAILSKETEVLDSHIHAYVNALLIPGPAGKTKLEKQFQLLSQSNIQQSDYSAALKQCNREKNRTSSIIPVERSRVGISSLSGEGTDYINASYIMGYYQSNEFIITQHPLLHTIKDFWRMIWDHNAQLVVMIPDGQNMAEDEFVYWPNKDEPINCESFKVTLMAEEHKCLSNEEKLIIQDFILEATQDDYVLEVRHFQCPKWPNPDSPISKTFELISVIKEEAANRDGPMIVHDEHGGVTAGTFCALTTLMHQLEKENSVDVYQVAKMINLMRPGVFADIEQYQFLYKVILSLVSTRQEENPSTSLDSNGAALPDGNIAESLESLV
Method: (G) Inhibitor sensitivity.
as §23, §24, §25, §26, §27, §28

human PTPN1 = molecular target: T4, human PTPN1 (Homo sapiens, UniProt P18031); test: PTP selectivity assay with DiFMUP substrate
T4 sequence (P18031 1-321): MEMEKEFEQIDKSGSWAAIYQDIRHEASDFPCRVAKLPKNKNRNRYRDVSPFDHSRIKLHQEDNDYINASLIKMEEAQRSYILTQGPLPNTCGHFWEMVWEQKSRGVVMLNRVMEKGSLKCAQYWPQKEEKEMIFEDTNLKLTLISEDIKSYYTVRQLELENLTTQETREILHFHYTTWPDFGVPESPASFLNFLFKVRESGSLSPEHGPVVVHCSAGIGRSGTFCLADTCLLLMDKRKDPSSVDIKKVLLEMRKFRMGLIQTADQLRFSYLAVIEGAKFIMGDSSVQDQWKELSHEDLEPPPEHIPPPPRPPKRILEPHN
Method: as §1, §3, §4, §14, §15, §16, §17, §18, §19
cuvette at room temperature.
as §20, §21, §22, §12, §13

C6 glioblastoma cells = test: Cell proliferation assay; format: cell-based, rat; settings: parent C6 cells, liposome delivery
PTPRZ-ICR [6] = molecular target: T1, PTPRZ-ICR; test: In vitro dephosphorylation assay, single concentration of SCB4380 analogues; format: biochemical; set-up: PTPRZ (ICR, amino acid residues 1698-2315); FLAG (followed by HRV 3C site) (N, cleaved yes); made in house; host or cells: silkworm (Bombyx mori) pupae, BmNPV baculovirus; settings: compound 10 μM, substrate 20 μM, human PTPRZ-ICR 0.1 nM
Source text: No significant effects were detected with compounds 7 to 10. TEXT PRINTED IN THE PICTURE: (B) 7: (no inhibition) | (B) 8: (no inhibition) | (B) 9: (no inhibition) | (B) 10: (no inhibition)

T1 sequence (P23471 1698-2308 isoform P23471-2 limits assumed, stated change not applied): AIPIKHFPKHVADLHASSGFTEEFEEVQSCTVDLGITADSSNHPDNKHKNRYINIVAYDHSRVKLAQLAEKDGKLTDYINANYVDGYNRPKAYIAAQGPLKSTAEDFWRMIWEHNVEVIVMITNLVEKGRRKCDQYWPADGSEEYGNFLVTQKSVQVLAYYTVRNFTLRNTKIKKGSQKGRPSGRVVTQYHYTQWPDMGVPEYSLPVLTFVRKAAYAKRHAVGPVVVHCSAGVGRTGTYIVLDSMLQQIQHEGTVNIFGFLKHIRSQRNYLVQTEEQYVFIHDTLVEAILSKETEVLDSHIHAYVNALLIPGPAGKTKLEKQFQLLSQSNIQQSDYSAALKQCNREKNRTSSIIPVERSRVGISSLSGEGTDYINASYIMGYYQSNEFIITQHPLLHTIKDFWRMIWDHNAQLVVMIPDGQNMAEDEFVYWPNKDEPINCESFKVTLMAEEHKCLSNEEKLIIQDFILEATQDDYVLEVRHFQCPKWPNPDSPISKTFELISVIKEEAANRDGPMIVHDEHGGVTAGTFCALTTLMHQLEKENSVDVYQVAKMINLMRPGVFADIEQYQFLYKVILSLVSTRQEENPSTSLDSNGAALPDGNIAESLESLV
human PTPRM, sequence (P28827 765-1452): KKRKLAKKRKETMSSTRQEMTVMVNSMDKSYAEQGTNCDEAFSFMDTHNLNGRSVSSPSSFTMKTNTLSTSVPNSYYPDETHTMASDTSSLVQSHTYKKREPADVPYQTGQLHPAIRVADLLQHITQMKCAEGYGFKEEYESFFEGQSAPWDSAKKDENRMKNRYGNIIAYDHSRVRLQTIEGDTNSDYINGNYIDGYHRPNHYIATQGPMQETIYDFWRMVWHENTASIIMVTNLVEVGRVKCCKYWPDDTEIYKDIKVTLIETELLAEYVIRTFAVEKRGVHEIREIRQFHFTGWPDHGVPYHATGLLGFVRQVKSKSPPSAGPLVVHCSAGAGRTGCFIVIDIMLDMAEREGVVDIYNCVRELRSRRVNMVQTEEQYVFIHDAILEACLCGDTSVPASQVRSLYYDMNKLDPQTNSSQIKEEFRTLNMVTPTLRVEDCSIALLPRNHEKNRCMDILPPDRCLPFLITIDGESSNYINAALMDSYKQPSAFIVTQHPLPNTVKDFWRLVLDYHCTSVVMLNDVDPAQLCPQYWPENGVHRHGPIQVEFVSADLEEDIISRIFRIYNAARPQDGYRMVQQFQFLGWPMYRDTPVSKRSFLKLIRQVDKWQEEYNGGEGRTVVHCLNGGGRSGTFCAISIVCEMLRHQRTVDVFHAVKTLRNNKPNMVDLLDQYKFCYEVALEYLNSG
PTPRZ, sequence (P23471 1698-2308 isoform P23471-2 limits assumed, stated change not applied): as the sequence (P23471 1698-2308 isoform P23471-2 limits assumed, stated change not applied) above

O=S(=O)([O-])c1ccc2c(N=Nc3ccc(S(=O)(=O)[O-])c4ccccc34)c(O)c(S(=O)(=O)[O-])cc2c1.[Na+].[Na+].[Na+] [SCB4380, trisodium 3-hydroxy-4-[(4-sulfonato-1-naphthyl)diazenyl]-2,7-naphthalenedisulfonate]
Kd (PTPRZ-ICR [1]): 1.23 µM
ΔH (enthalpy change, ITC) (PTPRZ-ICR [1]; 298.15 K, pH 7.5): -58.4 kJ/mol
IC50 (PTPRZ): 0.4 µM
IC50 (human PTPRM): 60.7 µM
Membrane permeability [2]: deficient and low
Stability in living cells (C6 cells): substantial instability
half-life [3]: ~50 min
IC50 (mouse PTPRB): 73.8 µM
IC50 (PTPRZ-ICR [4]): 0.4 µM
Inhibition type by Lineweaver-Burk plot analysis (PTPRZ-ICR [4]; human PTPRZ-ICR, pCAP-peptide substrate): competitive
IC50 (human PTPRA): 75.7 µM
Binding to PTPRZ-ICR by native MS (PTPRZ-ICR [5]): bound to Z-ICR in a one-to-one stoichiometry
IC50 (human PTPRS): 14.8 µM
IC50 (human PTPN6): 24.6 µM
Inhibitor sensitivity of N1758D mutant versus wild-type enzyme (PTPRZ-ICR N1758D mutant): resistant to inhibition
IC50 (human PTPRG): 0.4 µM
Inhibitor sensitivity of Y1756F mutant versus wild-type enzyme (PTPRZ-ICR Y1756F mutant): impaired the inhibition by SCB4380 markedly
IC50 (human PTPN1): 19.5 µM

O=S(=O)([O-])c1cc(S(=O)(=O)[O-])c2c(N=Nc3ccc(S(=O)(=O)[O-])c4ccccc34)c(O)ccc2c1.[Na+].[Na+].[Na+] [compound 2, trisodium 7-hydroxy-8-[(4-sulfonato-1-naphthyl)diazenyl]-1,3-naphthalenedisulfonate]
Proliferation of C6 glioblastoma cells (increase in cell number in 24 h) (C6 glioblastoma cells): did not show suppressive effects
Inhibitory effect on hydrolysis of pCAP-GIT1_549–556 (residual enzymatic activity relative to DMSO control) (PTPRZ-ICR [6]): almost no inhibition
Binding to PTPRZ-ICR by native MS (PTPRZ-ICR [5]): no binding activity

O=S(=O)([O-])c1ccc2c(N=Nc3ccc(S(=O)(=O)[O-])c4ccccc34)c(O)ccc2c1.[Na+].[Na+] [compound 3, disodium 6-hydroxy-5-[(4-sulfonato-1-naphthyl)diazenyl]-2-naphthalene sulfonate]
Binding to PTPRZ-ICR by native MS (PTPRZ-ICR [5]): no binding activity
Inhibitor sensitivity of N1758D mutant versus wild-type enzyme (PTPRZ-ICR N1758D mutant): no changes in sensitivity

O=S(=O)([O-])c1ccc(N=Nc2c(O)ccc3ccccc23)c2ccccc12.[Na+] [compound 4, sodium 4-(2-hydroxy-1-naphthalenylazo)-1-naphthalenesulfonate]
Inhibitor sensitivity of N1758D mutant versus wild-type enzyme (PTPRZ-ICR N1758D mutant): no changes in sensitivity

O=S(=O)([O-])c1ccc2c(N=Nc3cccc4ccccc34)c(O)c(S(=O)(=O)[O-])cc2c1.[Na+].[Na+] [compound 5, disodium 3-hydroxy-4-(1-naphthyldiazenyl)-2,7-naphthalenedisulfonate]
Inhibitory effect on hydrolysis of pCAP-GIT1_549–556 (residual enzymatic activity relative to DMSO control) (PTPRZ-ICR [6]): markedly abolished inhibitory activity
Inhibitory effect on hydrolysis of pCAP-GIT1_549–556 (residual enzymatic activity relative to DMSO control) (PTPRZ-ICR [6]; listed as Compound 5): weakly inhibited
Inhibitor sensitivity of N1758D mutant versus wild-type enzyme (PTPRZ-ICR N1758D mutant): resistant to inhibition

O=[N+]([O-])c1ccc(N=Nc2c(O)c(S(=O)(=O)[O-])cc3cc(S(=O)(=O)[O-])ccc23)cc1.[Na+].[Na+] [compound 6, sodium 3-hydroxy-4-[(4-nitrophenyl)diazenyl]-2,7-naphthalenedisulfonate]
Inhibitory effect on hydrolysis of pCAP-GIT1_549–556 (residual enzymatic activity relative to DMSO control) (PTPRZ-ICR [6]): markedly abolished inhibitory activity; also recorded: weakly inhibited

O=Nc1c(O)c(S(=O)(=O)O)cc2cc(S(=O)(=O)O)ccc12 [compound 7, disodium 1-nitroso-2-naphthol-3,6-disulfonate monohydrate]
Inhibitory effect on hydrolysis of pCAP-GIT1_549–556 (residual enzymatic activity relative to DMSO control) (PTPRZ-ICR [6]): no inhibition

O=S(=O)([O-])c1ccc2cc(O)c(S(=O)(=O)[O-])cc2c1.[Na+].[Na+] [compound 8, disodium 3-hydroxy-2,7-naphthalenedisulfonate]
Inhibitory effect on hydrolysis of pCAP-GIT1_549–556 (residual enzymatic activity relative to DMSO control) (PTPRZ-ICR [6]): no inhibition

Nc1ccc(S(=O)(=O)O)c2ccccc12 [compound 9, 4-amino-1-naphthalenesulfonic acid]
Inhibitory effect on hydrolysis of pCAP-GIT1_549–556 (residual enzymatic activity relative to DMSO control) (PTPRZ-ICR [6]): no inhibition

O=S(=O)(O)c1cccc2ccccc12 [compound 10, sodium 1-naphthalenesulfonate]
Inhibitory effect on hydrolysis of pCAP-GIT1_549–556 (residual enzymatic activity relative to DMSO control) (PTPRZ-ICR [6]): no inhibition

[O]=[V]([O-])([O-])[O-] [vanadate, reference compound]
Inhibitor sensitivity of Y1756F mutant versus wild-type enzyme (PTPRZ-ICR Y1756F mutant): not by vanadate

From PMC4746629, “Small-molecule inhibition of PTPRZ reduces tumor growth in a rat model of glioblastoma” (Scientific Reports, 2016)
